Experimental data as given in patent US9670172B2, “Heterocyclic compounds and methods of use” (Medivation Technologies, Inc., priority 2014, dated 2017).
Read-outs that look alike come from different tables or passages of the source.

Columns and labels:
[1] = HepG2 cell viability by MTS; format: cell-based; conditions: human, HepG2 cells, 3 days, DMEM without FBS, MTS, read-out: Average Viability (% Inhibition, n = 3)
Experimental: For viability measurements, HepG2 cells were seeded at 5,000 cells per well in 96-well plates in DMEM supplemented with 10% FBS. After 1 day in culture, cells were treated with compounds (20 μM & 5 μM) for 3 days in DMEM without FBS. Viability was measured by MTS. Treatment with compounds (20 μM & 5 μM) was carried out in medium without FBS, and viability was measured by MTS. […]

SREBP2 = SREBP2 cleavage in HEPG2 cells (Western blot normalized to actin); format: cell-based; conditions: Homo sapiens, read-out: Average SREBP2 cleavage (% Inhibition, n = 3)
Experimental: Average SREBP2 cleavage in HEPG2 cells was measured in the presence of compounds disclosed in Table 1. HepG2 cells were seeded at 500,000 cells per well in 6-well plates in DMEM supplemented with 10% FBS. After 2 days, cells were treated with compounds (20 μM) for 1 day in DMEM without FBS. Western blots were normalized with respect to actin.
The results are shown in Table 3 as percent inhibition@20 μM, and in Table 4 as percent inhibition@5 μM.

[2] = 24 h, 20 μM, HepG2 cells, 1 day, DMEM without FBS

| Compound | cytotoxicity at 3 days, 20 μM [1] [%] | inhibition at 20 µM (SREBP2; [2]) [%] | inhibition at 20 µM (SREBP2; HepG2, 24 h) [%] | cytotoxicity at 3 days, 5 μM [1] [%] | inhibition at 5 µM (SREBP2; HepG2 cells) [%] |
| --- | --- | --- | --- | --- | --- |
| CCCc1cc(-c2nc(-c3ccc(NS(=O)(=O)C(F)(F)F)cc3)cs2)ccn1 [Compound 1, 1,1,1-trifluoro-N-(4-(2-(2-propylpyridin-4-yl)thiazol-4-yl)phenyl)methanesulfonamide] | 92.1 | 73.7 | – | – | – |
| CCCc1cc(-c2nc(-c3cccc(NS(=O)(=O)C(F)(F)F)c3)cs2)ccn1 [Compound 2, 1,1,1-trifluoro-N-(3-(2-(2-propylpyridin-4-yl)thiazol-4-yl)phenyl)methanesulfonamide] | 80.5 | – | 73 | – | – |
| CCCc1cc(-c2nc(-c3ccc(NS(=O)(=O)C(F)(F)F)cc3Cl)cs2)ccn1 [Compound 4, N-(3-chloro-4-(2-(2-propylpyridin-4-yl)thiazol-4-yl)phenyl)-1,1,1-trifluoromethanesulfonamide] | 94.4 | – | 96.1 | – | – |
| COc1cc(-c2csc(-c3ccnc(CC(C)C)c3)n2)ccc1NS(=O)(=O)C(F)(F)F [Compound 57, 1,1,1-trifluoro-N-(2-methoxy-4-{2-[2-(2-methylpropyl)pyridin-4-yl]-1,3-thiazol-4-yl}phenyl)methanesulfonamide] | 56.4 | 46.9 | – | – | – |
| CCCc1cc(-c2nc(-c3ccc(NS(=O)(=O)C(F)(F)F)c(OC)c3)cs2)ccn1 [Compound 58, 1,1,1-trifluoro-N-{2-methoxy-4-[2-(2-propylpyridin-4-yl)-1,3-thiazol-4-yl]phenyl}methanesulfonamide] | 67.9 | 29.4 | – | – | – |
| COc1cc(-c2csc(-c3ccnc(C(C)(C)C)c3)n2)ccc1NS(=O)(=O)C(F)(F)F [Compound 59, N-(4-(2-(2-tert-butylpyridin-4-yl)thiazol-4-yl)-2-methoxyphenyl)-1,1,1-trifluoromethanesulfonamide] | 99.8 | 60.6 | – | – | – |
| Nc1cc(-c2nc(-c3ccc(NS(=O)(=O)C(F)(F)F)cc3Cl)cs2)ccn1 [Compound 61, N-{4-[2-(2-aminopyridin-4-yl)-1,3-thiazol-4-yl]-3-chlorophenyl}-1,1,1-trifluoromethanesulfonamide] | 43 | 2 | – | – | – |
| CS(=O)(=O)Nc1cc(-c2nc(-c3ccc(NS(=O)(=O)C(F)(F)F)cc3Cl)cs2)ccn1 [Compound 62, N-{3-chloro-4-[2-(2-methanesulfonamidopyridin-4-yl)-1,3-thiazol-4-yl]phenyl}-1,1,1-trifluoromethanesulfonamide] | 0 | 0 | – | – | – |
| CCCc1cc(-c2nc(-c3ccc(NS(=O)(=O)C(F)(F)F)c(O)c3)cs2)ccn1 [Compound 63, 1,1,1-trifluoro-N-(2-hydroxy-4-(2-(2-propylpyridin-4-yl)thiazol-4-yl)phenyl)methanesulfonamide] | 47 | 39 | – | – | – |
| O=S(=O)(Nc1ccc(-c2csc(-c3ccnc(NS(=O)(=O)C(F)(F)F)c3)n2)c(Cl)c1)C(F)(F)F [Compound 66, N-{3-chloro-4-[2-(2-trifluoromethanesulfonamidopyridin-4-yl)-1,3-thiazol-4-yl]phenyl}-1,1,1-trifluoromethanesulfonamide] | 11 | 0 | – | – | – |
| O=C(c1ccc(-c2nc(-c3ccc(NS(=O)(=O)C(F)(F)F)cc3Cl)cs2)cc1)N1CCCCC1 [Compound 67, N-(3-chloro-4-{2-[4-(piperidine-1-carbonyl)phenyl]-1,3-thiazol-4-yl}phenyl)-1,1,1-trifluoromethanesulfonamide] | 20 | 3 | – | – | – |
| O=S(=O)(Nc1ccc(-c2csc(-c3ccc4cc[nH]c4c3)n2)c(Cl)c1)C(F)(F)F [Compound 72, N-{3-chloro-4-[2-(1H-indol-6-yl)-1,3-thiazol-4-yl]phenyl}-1,1,1-trifluoromethanesulfonamide] | – | – | – | 94 | 61 |
| O=S(=O)(Nc1ccc(-c2csc(-c3ccc(C(F)(F)F)c(OCc4ccccc4)c3)n2)c(Cl)c1)C(F)(F)F [Compound 73, N-(4-{2-[3-(benzyloxy)-4-(trifluoromethyl)phenyl]-1,3-thiazol-4-yl}-3-chlorophenyl)-1,1,1-trifluoromethanesulfonamide] | – | – | – | 99 | 64 |
| O=S(=O)(Nc1ccc(-c2csc(-c3ccccc3-c3ccccc3)n2)c(Cl)c1)C(F)(F)F [Compound 74, N-{3-chloro-4-[2-(2-phenylphenyl)-1,3-thiazol-4-yl]phenyl}-1,1,1-trifluoromethanesulfonamide] | – | – | – | 97 | 76 |
| O=S(=O)(Nc1ccc(-c2csc(-c3cncc4ccccc34)n2)c(Cl)c1)C(F)(F)F [Compound 75, N-{3-chloro-4-[2-(isoquinolin-4-yl)-1,3-thiazol-4-yl]phenyl}-1,1,1-trifluoromethanesulfonamide] | – | – | – | 88 | 55 |
| CN1CCN(c2cc(-c3nc(-c4ccc(NS(=O)(=O)C(F)(F)F)cc4Cl)cs3)ccn2)CC1 [Compound 76, N-(3-chloro-4-{2-[2-(4-methylpiperazin-1-yl)pyridin-4-yl]-1,3-thiazol-4-yl}phenyl)-1,1,1-trifluoromethanesulfonamide] | – | – | – | 3 | 7 |
| Cc1noc(C)c1-c1nc(-c2ccc(NS(=O)(=O)C(F)(F)F)cc2Cl)cs1 [Compound 77, N-{3-chloro-4-[2-(dimethyl-1,2-oxazol-4-yl)-1,3-thiazol-4-yl]phenyl}-1,1,1-trifluoromethanesulfonamide] | – | – | – | 41 | 56 |
| Cc1ccc(S(=O)(=O)Nc2cccc(-c3nc(-c4ccc(NS(=O)(=O)C(F)(F)F)cc4Cl)cs3)c2)cc1 [Compound 78, N-{3-[4-(2-chloro-4-trifluoromethanesulfonamidophenyl)-1,3-thiazol-2-yl]phenyl}-4-methylbenzene-1-sulfonamide] | – | – | – | 87 | 38 |
| COc1ccc(-c2nc(-c3ccc(NS(=O)(=O)C(F)(F)F)cc3Cl)cs2)cc1OC [Compound 79, N-{3-chloro-4-[2-(3,4-dimethoxyphenyl)-1,3-thiazol-4-yl]phenyl}-1,1,1-trifluoromethanesulfonamide] | – | – | – | 74 | 65 |
| O=S(=O)(Nc1ccc(-c2csc(-c3ccc(F)cc3C(F)(F)F)n2)c(Cl)c1)C(F)(F)F [Compound 81, N-[3-chloro-4-[2-[4-fluoro-2-(trifluoromethyl)phenyl]thiazol-4-yl]phenyl]-1,1,1-trifluoro-methanesulfonamide] | – | – | – | 88 | 44 |
| O=S(=O)(Nc1ccc(-c2csc(-c3cccc(CO)c3)n2)c(Cl)c1)C(F)(F)F [Compound 83, N-(3-chloro-4-{2-[3-(hydroxymethyl)phenyl]-1,3-thiazol-4-yl}phenyl)-1,1,1-trifluoromethanesulfonamide] | – | – | – | 0 | 2 |
| O=S(=O)(Nc1ccc(-c2csc(-c3ccccc3CO)n2)c(Cl)c1)C(F)(F)F [Compound 84, N-(3-chloro-4-{2-[2-(hydroxymethyl)phenyl]-1,3-thiazol-4-yl}phenyl)-1,1,1-trifluoromethanesulfonamide] | – | – | – | 18 | 20 |
| Cc1cnccc1-c1nc(-c2ccc(NS(=O)(=O)C(F)(F)F)cc2Cl)cs1 [Compound 86, N-{3-chloro-4-[2-(3-methylpyridin-4-yl)-1,3-thiazol-4-yl]phenyl}-1,1,1-trifluoromethanesulfonamide] | – | – | – | 27 | 54 |
| O=S(=O)(Nc1ccc(-c2csc(-c3ccnc4[nH]ccc34)n2)c(Cl)c1)C(F)(F)F [Compound 87, N-[3-chloro-4-(2-{1H-pyrrolo[2,3-b]pyridin-4-yl}-1,3-thiazol-4-yl)phenyl]-1,1,1-trifluoromethanesulfonamide] | – | – | – | 9 | 50 |
| O=S(=O)(Nc1ccc(-c2csc(-c3c(F)cnc4[nH]ccc34)n2)c(Cl)c1)C(F)(F)F [Compound 89, N-[3-chloro-4-(2-{5-fluoro-1H-pyrrolo[2,3-b]pyridin-4-yl}-1,3-thiazol-4-yl)phenyl]-1,1,1-trifluoromethanesulfonamide] | – | – | – | – | 53 |
| O=S(=O)(Nc1ccc(-c2csc(-c3csc4ccccc34)n2)c(Cl)c1)C(F)(F)F [Compound 90, N-{4-[2-(1-benzothiophen-3-yl)-1,3-thiazol-4-yl]-3-chlorophenyl}-1,1,1-trifluoromethanesulfonamide] | – | – | – | 99 | 64 |
| O=S(=O)(Nc1ccc(-c2csc(-c3ccc(F)cc3CN3CCCC3)n2)c(Cl)c1)C(F)(F)F [Compound 91, N-(3-chloro-4-{2-[4-fluoro-2-(pyrrolidin-1-ylmethyl)phenyl]-1,3-thiazol-4-yl}phenyl)-1,1,1-trifluoromethanesulfonamide] | – | – | – | 4 | 16 |
